According to US6296873A, “Zero-order sustained release delivery system for carbamazephine derivatives” (Yissum Research Development Company of the Hebrew …, priority 2000, dated 2001):
In brackets after ≈: the same amount, converted by molar mass. Like-named read-outs stand apart in the source and are kept apart here.

What was measured:
[1] = Crystal morphology and structure of carbamazepine in the gel layer of hydrated tablets (DSC, X-ray, SEM); assay type: physicochemical; conditions: for SEM: form of carbamazepine in the gel layer: 50% Methocel K4M
Protocol: Gel layers of the tablets were analyzed. Tablets were hydrated using the USP Basket Method I under the same conditions described in the dissolution studies. At various time intervals the tablets were removed from the baskets, the gel layer was scratched and dried at room temperature for at least 24 hours. The gel layer was analyzed by DSC, X-ray powder diffraction and scanning electron microscopy (SEM). Used analytical methods are described in Example 4.
Tablets containing 50% carbamazepine and 50% Methocel K4M were prepared and hydrated in medium containing 1% SDS in water, using tablet dissolution tester at the same conditions used for measurements of the release rate of the drug.
At various time intervals the tablets were removed and the gel layer was peeled, dried at room temperature and analyzed by DSC, X-ray and SEM. For comparison, a suspension containing carbamazepine in 1% SDS water solution was prepared and the crystals obtained were analyzed by DSC, X-ray and SEM.
(§1) The thermal analysis of the samples was performed using a Differential Scanning Calorimeter (DSC, Mettler TA4000 with measuring cell DSC 30E, Switzerland). Samples were measured into aluminum pans. Lids were crimped and holes were made in lids in order to allow dehydration of samples. The thermal behavior of the samples was studied under nitrogen purge at heating rates of 10° C. min^-1 over a temperature range of 0° C. to 250° C. When the glass transition temperature of HPMC was examined the heating rate was 0.5° C. min^-1.
(§2) X-ray powder diffraction of the samples was recorded by Philips automated diffractometer using Cu-K α radiation (40 kV, 35 mA) at a scanning rate of 0.5° per 20 min^-1.
Samples of hydrated tablets were sliced across the gel layer. The samples were washed and then treated with increasing concentration of ethanol, 5 minutes at each concentration, for dehydration. […] Scanning electron photomicrographs were recorded using a Philips 505 SEM, applying voltage of […]. Samples of powders were coated and analyzed under the same conditions described for the hydrated tablets.

[2] = Solubility of carbamazepine in medium; assay type: physicochemical; conditions: read-out: Drug solubility
From the text: Results are seen in FIG. 12.

[3] = Degree of conversion of anhydrous carbamazepine to carbamazepine dihydrate in suspension (DSC); assay type: physicochemical
Protocol: Suspensions of carbamazepine (5% w/v) containing water or 1% SDS aqueous solution were shaken at 37° C. with stirring (50 rpm). Samples from the sediment were taken after 1 day, dried at room temperature for 2 days, and analyzed by differential scanning calorimetry, X-ray powder diffraction and scanning electron microscopy (SEM). Carbamazepine anhydrous powder was analyzed using the same methods.
(§3) Analysis of carbamazepine in HPMC solutions and in dry mixtures of HPMC was performed. Suspension of carbamazepine (5% w/v) containing 1% SDS aqueous solution with Methocel K4M at different concentrations, namely 0.5, 1, 2, 5 and 10 mg,/ml were shaken for 1-7 days at 37° C. with stirring (50 rpm). Samples from the sediment were taken, at various time intervals, dried at room temperature for 2 days and analyzed by DSC, X-ray powder diffraction and SEM.
The degree of conversion of anhydrous carbamazepine to the dihydrate form, measured by DSC, was calculated according to the ratio obtained from the dehydration enthalpies of carbamazepine suspended in 1% SDS aqueous Methocel solution and 1% SDS aqueous solution without Methocel. Dry mixtures containing different ratios of HPMC (Methocel K4M) and carbamazepine were also analyzed by DSC in order to investigate the influence of HPMC on the polymorphic transformation of carbamazepine.
as §1

[4] = Crystal morphology and structure of carbamazepine from HPMC solutions (SEM, X-ray diffraction); assay type: physicochemical; conditions: for X-ray diffraction: crystal form of carbamazepine: 1 day
Protocol: as §3, §2
Samples of hydrated tablets were sliced across the gel layer. The samples were washed and then treated with increasing concentration of ethanol, 5 minutes at each concentration, for dehydration. In order to complete the dehydration the samples were transferred in solution of freon 113:ethanol with increasing concentrations of freon (25, 50, 75, 100%). The samples with 100% freon were incubated in the hood for 0.5 hour. The cross-sectioned tablets were mounted on stubs and coated with a polaron sputter coater, Model E5100. The film thickness obtained was approximately 75 Å. Scanning electron photomicrographs were recorded using a Philips 505 SEM, applying voltage of […]. Samples of powders were coated and analyzed under the same conditions described for the hydrated tablets.

[5] = after 1 hour, in the presence of water; cited from earlier work
[6] = anhydrous carbamazepine; cited from earlier work

NC(=O)N1c2ccccc2C=Cc2ccccc21 [carbamazepine]
SEM: form of carbamazepine in the gel layer ([1]; 6 hours of hydration): transformed to an amorphous form | SEM: form of carbamazepine in the gel layer ([1]; 20 hours hydration): showed the same behavior | Transformation of carbamazepine to the dihydrate form in the gel layer ([1]; hydrated tablets containing 50% polymer, 6 and 20 hours): inhibited | solubility ([2]; 0.5% sds in water): 1470 µg/mL (≈ 6.21 mM) | solubility ([2]; 1% sds in water): 3300 µg/mL (≈ 14 mM) | Degree of conversion of carbamazepine to carbamazepine dihydrate ([3]; 5 mg/ml Methocel K4M, time 1 day): 0% | Degree of conversion of carbamazepine to carbamazepine dihydrate ([3]; 5 mg/ml Methocel K4M, time 2 days): 0.97% | Degree of conversion of carbamazepine to carbamazepine dihydrate ([3]; 5 mg/ml Methocel K4M, time 3 days): 8.8% | Degree of conversion of carbamazepine to carbamazepine dihydrate ([3]; 5 mg/ml Methocel K4M, time 4 days): 21.5% | Degree of conversion of carbamazepine to carbamazepine dihydrate ([3]; 5 mg/ml Methocel K4M, time 7 days): 100% | Degree of conversion of carbamazepine to carbamazepine dihydrate ([3]; Methocel K4M 0 mg/ml, 24 hours, 1% SDS, 37° C.): 100% | Degree of conversion of carbamazepine to carbamazepine dihydrate ([3]; Methocel K4M 0.5 mg/ml, 24 hours, 1% SDS, 37° C.): 77.0% | Degree of conversion of carbamazepine to carbamazepine dihydrate ([3]; Methocel K4M 1 mg/ml, 24 hours, 1% SDS, 37° C.): 23.1% | Degree of conversion of carbamazepine to carbamazepine dihydrate ([3]; Methocel K4M 2 mg/ml, 24 hours, 1% SDS, 37° C.): 0% | Degree of conversion of carbamazepine to carbamazepine dihydrate ([3]; Methocel K4M 5 mg/ml, 24 hours, 1% SDS, 37° C.): 0% | Degree of conversion of carbamazepine to carbamazepine dihydrate ([3]; Methocel K4M 10 mg/ml, 24 hours, 1% SDS, 37° C.): 0% | Transformation of carbamazepine to dihydrate ([3]; after 7 days, all examined Methocel K4M concentrations): transformed completely to dihydrate | Conversion of anhydrous carbamazepine to dihydrate (DSC thermograms) ([3]; suspended in water, without HPMC): completely converted to dihydrate | X-ray diffraction: crystal form of carbamazepine ([4]; 1 mg/ml Methocel K4M solution): mixture of carbamazepine and carbamazepine dihydrate crystals | X-ray diffraction: crystal form of carbamazepine ([4]; 10 mg/ml Methocel K4M solution): solely the anhydrous form | SEM: appearance of carbamazepine crystals from HPMC solutions ([4]; 1, 5 or 10 mg/ml HPMC, 1 and 7 days): appear to be amorphous | Conversion to carbamazepine dihydrate complete [5]: 95% | Solubility in water [6]: practically insoluble in water
